From US20250082624A1, “METHODS OF TREATING COGNITIVE IMPAIRMENT” (NeuroTherapia, Inc., priority 2023, published 2025)

Assay: Two-compartment PK model of NTRX-07 plasma data (fit and dose predictions)
Set-up: species or system human
Conditions: compartmental PK model; for AUC24 h accumulation / Cmax accumulation: over 7 days
Experimental: Predictive compartmental PK analysis was utilized during dose escalation to predict PK outcomes at higher dose levels based on data from lower ones.
FIGS. 22A and 22B show the mathematical model with a simultaneous fit to data from all four cohorts (excluding fed subject data).
Compartmental analysis was performed using a two-compartment model with extravascular administration. Modeling was performed using a sophisticated MS Excel workbook developed by PharmaDirections.
FIGS. 24A-B show the mathematical model (heavy blue line) fit to the Cohort A data. The model will be further refined as data from additional cohorts become available. In particular, the terminal slope may change some, as the current data set is inadequate to define it. The model was built based on geometric mean data, but timepoint data were not used in cases where plasma concentrations were below the limit of quantitation for four or more of the six subjects.
Note that the model estimates are somewhat higher than those obtained from non-compartmental analysis since they consider the entire dosing interval as opposed to only the time points for which data are available.
These predictions are based on an assumption of linear PK across the specified dose range, and parameters could be underestimated if a saturable process limits bioavailability or is involved in drug clearance. Current data are insufficient to determine whether any saturable processes are involved in NTRX-007 uptake or clearance.
(§1) Compartmental analysis was performed based on a two-compartment model with extravascular administration. Modeling was performed using a sophisticated MS Excel workbook developed by PharmaDirections. Geometric mean data from Cohorts A and B were used to determine weighted least squares best fits for the PK parameters.
FIGS. 26A-26B show the mathematical model (heavy blue line) fit to the Cohort B data. The model was built based on geometric mean data, but timepoint data were not used in cases where plasma concentrations were below the limit of quantitation for four or more of the seven subjects.
as §1, with “A, B,” for “A”, “C” for “B”
The model predicts somewhat higher exposure for b.i.d. dosing.
as §1, with “A, B, C,” for “A”, “D” for “B”

**Q.** With CC1(Cc2ccccc2)COc2cc(C(=O)N3CCCCC3)ccc21 (stereo not shown) [NTRX-07, 3-benzyl-3-methyl-2,3-dihydrobenzofuran-6-carboxylic acid-piperidine amide] as the compound, how does the AUC24 h (40 mg SDD QD, Day 1) read?
**A.** 96 ng·h/mL

**Q.** And the Cmax (40 mg SDD QD, Day 1)?
**A.** 43.9 ng/mL

**Q.** And the Cmin (40 mg SDD QD, Day 1)?
**A.** 0.0 ng/mL

**Q.** And the Tmax (40 mg SDD QD, Day 1)?
**A.** 4.8 min

**Q.** What about the AUC24 h (40 mg SDD QD, Day 2) of the same compound?
**A.** 100 ng·h/mL

**Q.** What about the Cmax (40 mg SDD QD, Day 2) of the same compound?
**A.** 44.3 ng/mL

**Q.** What about the Cmin (40 mg SDD QD, Day 2) of the same compound?
**A.** 0.4 ng/mL

**Q.** And the Tmax (40 mg SDD QD, Day 2)?
**A.** 4.8 min

**Q.** And the AUC24 h (40 mg SDD QD, Day 3)?
**A.** 101 ng·h/mL

**Q.** And the Cmax (40 mg SDD QD, Day 3)?
**A.** 44.4 ng/mL

**Q.** What about the Cmin (40 mg SDD QD, Day 3) of the same compound?
**A.** 0.5 ng/mL

**Q.** What about the Tmax (40 mg SDD QD, Day 3) of the same compound?
**A.** 4.8 min

**Q.** What about the AUC24 h (40 mg SDD QD, Day 4) of the same compound?
**A.** 101 ng·h/mL

**Q.** What about the Cmax (40 mg SDD QD, Day 4) of the same compound?
**A.** 44.4 ng/mL

**Q.** And the Cmin (40 mg SDD QD, Day 4)?
**A.** 0.5 ng/mL

**Q.** What about the Tmax (40 mg SDD QD, Day 4) of the same compound?
**A.** 4.8 min

**Q.** What about the AUC24 h (40 mg SDD QD, Day 5) of the same compound?
**A.** 101 ng·h/mL

**Q.** What about the Cmax (40 mg SDD QD, Day 5) of the same compound?
**A.** 44.4 ng/mL

**Q.** What about the Cmin (40 mg SDD QD, Day 5) of the same compound?
**A.** 0.5 ng/mL

**Q.** And the Tmax (40 mg SDD QD, Day 5)?
**A.** 4.8 min

**Q.** What about the AUC24 h (40 mg SDD QD, Day 6) of the same compound?
**A.** 101 ng·h/mL

**Q.** What about the Cmax (40 mg SDD QD, Day 6) of the same compound?
**A.** 44.4 ng/mL

**Q.** And the Cmin (40 mg SDD QD, Day 6)?
**A.** 0.5 ng/mL

**Q.** What about the Tmax (40 mg SDD QD, Day 6) of the same compound?
**A.** 4.8 min

**Q.** What about the AUC24 h (40 mg SDD QD, Day 7) of the same compound?
**A.** 101 ng·h/mL

**Q.** What about the Cmax (40 mg SDD QD, Day 7) of the same compound?
**A.** 44.4 ng/mL

**Q.** What about the Cmin (40 mg SDD QD, Day 7) of the same compound?
**A.** 0.5 ng/mL

**Q.** What about the Tmax (40 mg SDD QD, Day 7) of the same compound?
**A.** 4.8 min

**Q.** And the AUC24 h accumulation (40 mg SDD QD)?
**A.** 104%

**Q.** And the Cmax accumulation (40 mg SDD QD)?
**A.** 101%

**Q.** And the AUC24 h (120 mg SDD QD, Day 1)?
**A.** 210 ng·h/mL

**Q.** And the Cmax (120 mg SDD QD, Day 1)?
**A.** 74.6 ng/mL

**Q.** And the Tmax (120 mg SDD QD, Day 1)?
**A.** 37.8 min

**Q.** What about the AUC24 h (120 mg SDD QD, Day 2) of the same compound?
**A.** 227 ng·h/mL

**Q.** What about the Cmax (120 mg SDD QD, Day 2) of the same compound?
**A.** 76.1 ng/mL

**Q.** And the Cmin (120 mg SDD QD, Day 2)?
**A.** 1.5 ng/mL

**Q.** And the Tmax (120 mg SDD QD, Day 2)?
**A.** 37.8 min

**Q.** What about the AUC24 h (120 mg SDD QD, Day 3) of the same compound?
**A.** 230 ng·h/mL

**Q.** What about the Cmax (120 mg SDD QD, Day 3) of the same compound?
**A.** 76.3 ng/mL

**Q.** What about the Cmin (120 mg SDD QD, Day 3) of the same compound?
**A.** 1.8 ng/mL

**Q.** And the Tmax (120 mg SDD QD, Day 3)?
**A.** 37.8 min

**Q.** What about the AUC24 h (120 mg SDD QD, Day 4) of the same compound?
**A.** 231 ng·h/mL

**Q.** What about the Cmax (120 mg SDD QD, Day 4) of the same compound?
**A.** 76.4 ng/mL

**Q.** What about the Cmin (120 mg SDD QD, Day 4) of the same compound?
**A.** 1.8 ng/mL

**Q.** And the Tmax (120 mg SDD QD, Day 4)?
**A.** 37.8 min

**Q.** What about the AUC24 h (120 mg SDD QD, Day 5) of the same compound?
**A.** 231 ng·h/mL

**Q.** What about the Cmax (120 mg SDD QD, Day 5) of the same compound?
**A.** 76.4 ng/mL

**Q.** What about the Cmin (120 mg SDD QD, Day 5) of the same compound?
**A.** 1.8 ng/mL

**Q.** What about the Tmax (120 mg SDD QD, Day 5) of the same compound?
**A.** 37.8 min

**Q.** And the AUC24 h (120 mg SDD QD, Day 6)?
**A.** 231 ng·h/mL

**Q.** What about the Cmax (120 mg SDD QD, Day 6) of the same compound?
**A.** 76.4 ng/mL

**Q.** And the Cmin (120 mg SDD QD, Day 6)?
**A.** 1.8 ng/mL

**Q.** And the Tmax (120 mg SDD QD, Day 6)?
**A.** 37.8 min

**Q.** And the AUC24 h (120 mg SDD QD, Day 7)?
**A.** 231 ng·h/mL

**Q.** And the Cmax (120 mg SDD QD, Day 7)?
**A.** 76.4 ng/mL

**Q.** What about the Cmin (120 mg SDD QD, Day 7) of the same compound?
**A.** 1.8 ng/mL

**Q.** And the Tmax (120 mg SDD QD, Day 7)?
**A.** 37.8 min

**Q.** And the AUC24 h accumulation (120 mg SDD QD)?
**A.** 110%

**Q.** What about the Cmax accumulation (120 mg SDD QD) of the same compound?
**A.** 102%

**Q.** And the AUC24 h (360 mg SDD QD, Day 1)?
**A.** 559 ng·h/mL

**Q.** What about the Cmax (360 mg SDD QD, Day 1) of the same compound?
**A.** 162.0 ng/mL

**Q.** And the Tmax (360 mg SDD QD, Day 1)?
**A.** 47.4 min

**Q.** What about the AUC24 h (360 mg SDD QD, Day 2) of the same compound?
**A.** 616 ng·h/mL

**Q.** And the Cmax (360 mg SDD QD, Day 2)?
**A.** 166.4 ng/mL

**Q.** What about the Cmin (360 mg SDD QD, Day 2) of the same compound?
**A.** 4.7 ng/mL

**Q.** What about the Tmax (360 mg SDD QD, Day 2) of the same compound?
**A.** 47.4 min

**Q.** What about the AUC24 h (360 mg SDD QD, Day 3) of the same compound?
**A.** 628 ng·h/mL

**Q.** And the Cmax (360 mg SDD QD, Day 3)?
**A.** 167.4 ng/mL

**Q.** And the Cmin (360 mg SDD QD, Day 3)?
**A.** 5.4 ng/mL

**Q.** What about the Tmax (360 mg SDD QD, Day 3) of the same compound?
**A.** 47.4 min

**Q.** And the AUC24 h (360 mg SDD QD, Day 4)?
**A.** 631 ng·h/mL

**Q.** And the Cmax (360 mg SDD QD, Day 4)?
**A.** 167.6 ng/mL

**Q.** What about the Cmin (360 mg SDD QD, Day 4) of the same compound?
**A.** 5.7 ng/mL

**Q.** What about the Tmax (360 mg SDD QD, Day 4) of the same compound?
**A.** 47.4 min

**Q.** And the AUC24 h (360 mg SDD QD, Day 5)?
**A.** 631 ng·h/mL

**Q.** What about the Cmax (360 mg SDD QD, Day 5) of the same compound?
**A.** 167.6 ng/mL

**Q.** And the Cmin (360 mg SDD QD, Day 5)?
**A.** 5.7 ng/mL

**Q.** And the Tmax (360 mg SDD QD, Day 5)?
**A.** 47.4 min

**Q.** And the AUC24 h (360 mg SDD QD, Day 6)?
**A.** 631 ng·h/mL

**Q.** What about the Cmax (360 mg SDD QD, Day 6) of the same compound?
**A.** 167.6 ng/mL

**Q.** What about the Cmin (360 mg SDD QD, Day 6) of the same compound?
**A.** 5.7 ng/mL

**Q.** And the Tmax (360 mg SDD QD, Day 6)?
**A.** 47.4 min

**Q.** What about the AUC24 h (360 mg SDD QD, Day 7) of the same compound?
**A.** 631 ng·h/mL

**Q.** What about the Cmax (360 mg SDD QD, Day 7) of the same compound?
**A.** 167.6 ng/mL

**Q.** What about the Cmin (360 mg SDD QD, Day 7) of the same compound?
**A.** 5.7 ng/mL

**Q.** What about the Tmax (360 mg SDD QD, Day 7) of the same compound?
**A.** 47.4 min

**Q.** What about the AUC24 h accumulation (360 mg SDD QD) of the same compound?
**A.** 113%

**Q.** And the Cmax accumulation (360 mg SDD QD)?
**A.** 103%
